This is an account of results in US20250129334A1, “LINEAGE SPECIFICATION DURING STEM CELL TRANSITION” (Amniotics AB, priority 2021, published 2025).

Test [1] deals with HE cells. Put plainly: Single HE cell clone assay on OP9-DL1 stroma. The class given is cell-based, human. The conditions noted are these: day 14; total of 552 single cells per condition. The method, then:
Sorted HE (40,000), EHT (30,000) and HSC-like (5-20,000) cells were plated onto Matrigel (16 μg/cm2, Corning)-coated 96-well flat bottom plates in HE medium with 1% penicillin-streptomycin and kept in a humidified incubator at 37° C., 5% C02, 4% 02 overnight. The following day (day 0), wells were washed twice with PBS and fresh HE medium was added, together with 2-DG (1 mM), UK5099 (10 μM), DCA (3 mM or 10 mM), TSA (60 nM), TCP (300 nM), ACSS2i (5 μM), C646 (10 μM), CP-640186 (5 μM) or Atorvastatin (0.5 μM), where indicated. Media was changed and drugs were added every 2 days and cells were kept in a humidified incubator at 37° C., 5% CO2, 20% O2 for 6-7 days. Pictures were taken using an Olympus IX70 microscope equipped with a CellSens DP72 camera and CellSens Standard 1.6 software (Olympus). For single cell subcultures, single HE cells were directly sorted with a BD FACSAriaIII onto OP9-DL1 stroma in flat-bottom 96-well plates with 120 μl OP9 medium (OptiMEM medium with Glutamax (Invitrogen) with 10% FCS, 1% penicillin-streptomycin solution (Thermo Fisher Scientific) and 1% 2-mercaptoethanol (Invitrogen)) with SCF, IL-6, IL-11, IGF1 and EPO, and with or without 10 μM UK, or 3 mM or 10 mM DCA. […] At day 14, the wells were collected and scored for GPA+ clones by flow cytometry, using a BD LSRII.

Test [2] deals with HE cells. The experiment in a line: HE subculture with metabolic regulators, flow cytometry of hematopoietic output. The class given is cell-based, human. An excerpt: The RB9-CB1 human iPSC line (Woods, N.-B. et al. Brief report: efficient generation of hematopoietic precursors and progenitors from human pluripotent stem cell lines. Stem Cells 29, 1158-1164 (2011)) was co-cultured with mouse embryonic fibroblasts (MEFs, Millipore), passaged every six days and processed to form embryoid bodies (EBs) as described previously (Guibentif, C. et al. Single-Cell Analysis Identifies Distinct Stages of Human Endothelial to-Hematopoietic Transition. Cell Reports 19, 10-19 (2017)). The differentiation protocol used in this study was previously described (Ditadi, A. & Sturgeon, C. M. Directed differentiation of definitive hemogenic endothelium and hematopoietic progenitors from human pluripotent stem cells. Methods 101, 65-72 (2016)), however, small modifications were made to induce both primitive and definitive hematopoiesis, as indicated below and in FIG. 6, a. Newly-formed EBs were first kept in SFD medium supplemented with 1 ng/ml Activin A (on days 0-2) and 3 μM CHIR99021 (on day 2 only). At day 3, media was switched to “Day 3-SP34” medium supplemented with 1 ng/ml Activin A (on day 3 only) and 3 μM CHIR99021 (on day 3 only) until day 6. On day 6, media was replaced by “Day 6-SP34” medium, until day 8. In some experiments where indicated, to obtain a higher yield of HSC-like cells, EBs were kept until day 10: in this case, EBs were plated onto Matrigel (8 μg/cm2, Corning)-coated dishes on day 8 and kept until day 10. Media was changed every day, except on days 5 and 7. On day 8 or 10 (as indicated), EBs were singularized with 5-6 rounds of 5-minute incubations with TryPLE Express (Thermo Fisher Scientific). CD34^+ cells were selected using the human CD34 MicroBead kit (Miltenyi Biotec) and stained with CD34-FITC, CD73-PE, VECad-PerCPCy5.5, CD38-PC7, CD184-APC, CD45-AF700, CD43-APCH7, GPA-eF450, CD90-BV605 and the viability marker 7AAD in order to sort HE (CD34^+CD43^−CXCR4^−CD73^−CD90^+VECad^+), EHT (CD34^+CD43^intCXCR4^−CD73^−CD90^+VECad^+) and HSC-like (CD34^+CD43^+CD90^+CD38^−) cells, according to previously described markers (Guibentif, C. et al. Single-Cell Analysis Identifies Distinct Stages of Human Endothelial to-Hematopoietic Transition. Cell Reports 19, 10-19 (2017); Ditadi, A. et al. Human definitive haemogenic endothelium and arterial vascular endothelium represent distinct lineages. Nat Cell Biol 17, 580-591 (2015); and Choi, K.-D. et al. Identification of the Hemogenic Endothelial Progenitor and Its Direct Precursor in Human Pluripotent Stem Cell Differentiation Cultures. Cell Reports 2, 553-567 (2012)).
Sorted HE (40,000), EHT (30,000) and HSC-like (5-20,000) cells were plated onto Matrigel (16 μg/cm2, Corning)-coated 96-well flat bottom plates in HE medium with 1% penicillin-streptomycin and kept in a humidified incubator at 37° C., 5% C02, 4% 02 overnight. The following day (day 0), wells were washed twice with PBS and fresh HE medium was added, together with 2-DG (1 mM), UK5099 (10 μM), DCA (3 mM or 10 mM), TSA (60 nM), TCP (300 nM), ACSS2i (5 μM), C646 (10 μM), CP-640186 (5 μM) or Atorvastatin (0.5 μM), where indicated. Media was changed and drugs were added every 2 days and cells were kept in a humidified incubator at 37° C., 5% CO2, 20% O2 for 6-7 days. Pictures were taken using an Olympus IX70 microscope equipped with a CellSens DP72 camera and CellSens Standard 1.6 software (Olympus). For single cell subcultures, single HE cells were directly sorted with a BD FACSAriaIII onto OP9-DL1 stroma in flat-bottom 96-well plates with 120 μl OP9 medium (OptiMEM medium with Glutamax (Invitrogen) with 10% FCS, 1% penicillin-streptomycin solution (Thermo Fisher Scientific) and 1% 2-mercaptoethanol (Invitrogen)) with SCF, IL-6, IL-11, IGF1 and EPO, and with or without 10 μM UK, or 3 mM or 10 mM DCA. The cells were kept in a humidified incubator at 37° C., 5% CO2, 4% O2 and media was replaced every 4 days. […]

Turning to `O=C(O)C(Cl)Cl` [DCA, dichloroacetate], in the test on HE cells [1], the “GPA+ clones” value is 7 clones. Also, the “decrease in CD43+GPA+ cells” value with HE cells [2] (day 6 of HE subculture, DCA 3 mM) was found to be 50%. Also, the “increase in CD43+CD45+ cells / cell output” value with HE cells [2] (day 6 of subculture, deriving from HE, DCA 3 mM or shRNA) is 80%.
Consider `N#CC(=Cc1cn(-c2ccccc2)c2ccccc12)C(=O)O` [UK5099, 2-Cyano-3-(1-phenyl-1H-indol-3-yl)-2-propenoic acid], for which, in the test with HE cells [1], the “GPA+ clones” value turned out to be 12 clones. The “EdU incorporation (proliferation)” value in the test on HE cells [2] (24 h pulse, days 1 and 2 of subculture, UK5099 10 μM, DCA 3 mM) was “no differences in proliferation”. Moreover, the “frequency of HSC-like cells deriving from HE” value in the test on HE cells [2] (3 days subculture, UK5099 10 μM, DCA 3 mM) was “did not have an effect”. The “proliferation of CD45+ cells deriving from HE” value in the test with HE cells [2] (CTV, UK5099 10 μM, DCA 3 mM) is given as “did not have an effect”. Further, the “proliferation of the GPA+ population deriving from HE” value in the test on HE cells [2] (CTV, day 3, UK5099 10 μM, DCA 3 mM) is listed as “did not observe any differences”. Further, the “CD43+GPA+ cell output” value in the test on HE cells [2] (day 3 of HE subculture, UK5099 10 μM, 1-AA 4 mM, DCA 3 mM, vs control) is listed as “striking increase”. For the same compound, the “levels of total CD43+ cells” value with HE cells [2] (day 6, UK5099 10 μM, 1-AA 4 mM) was “unchanged”. The “decrease in CD43+CD45+ population” value in the test with HE cells [2] (day 6, deriving from HE, UK5099 10 μM) worked out at 2 fold.
